Laboratory results: patent publication US9447039B2, “Indole carboxamide derivatives and uses thereof” (priority 2012, dated 2016)
In brackets after ≈: the same amount, converted by molar mass.

Each compound was assayed on Mycobacterium tuberculosis H37Rv (ATCC #27294) (assay: Minimum Inhibitory Concentration (MIC50) determination). Conditions: 120 h.
Assay type: cell-based
Procedure: Mycobacterium tuberculosis H37Rv (ATCC #27294) (Mtb) strain was maintained in Middlebrook 7H9 broth medium supplemented with 0.05% Tween 80 and 10% ADS supplement. ADS supplement contains 5% bovine serum albumin fraction V. 2% D-dextrose and 0.8% of sodium chloride. Middlebrook 7H11 agar medium supplemented with 10% OADC (oleic acid, albumin, dextrose and catalase) was used as solid media for growing Mtb. Stock solutions of the compounds were prepared using 90% DMSO.
Minimum Inhibitory Concentration (MIC50) Determination
In Table 5 below, MIC50 is defined as the lowest concentration of the compound that inhibited 50% growth of the wild type strain compared to untreated controls. Test compounds were two or three fold serially diluted in duplicates and spotted by mosquito HTS to 384-well clear plates, resulting in 10 dilutions of each compound. A volume of 50 μl of Mtb culture (final OD600 of 0.02) was added to each well, and the assay plates were incubated at 37° C. for 5 days. Growth of bacteria was measured by reading absorbance at 600 nm using a Spectramax M2 spectrophotometer. MIC50 values were determined by using Activity Base software.
With C[C@H]1CC[C@@H](NC(=O)c2cc3c(C#N)cc(C#N)cc3[nH]2)CC1 [Example 4AW, 4,6-Dicyano-N-(cis-4-methyl-cyclohexyl)-1H-indole-2-carboxamide] the MIC50 was > 20 µM.
Work on O=C(NC1CCC(C(F)(F)F)CC1)c1cc2c(Cl)cc(Cl)cc2[nH]1 (stereo not drawn) [Example 5A, 4,6-Dichloro-N-(4-(trifluoromethyl)-cyclohexyl)-1H-indole-2-carboxamide] yielded an MIC50 of 0.305 µM (≈ 0.116 µg/mL).
Compound Cc1cc(C)c2cc(C(=O)NC3CCCCC3C(C)C)[nH]c2c1 (stereo not drawn) [Example 4O, N-(2-Isopropylcyclohexyl)-4,6-dimethyl-1H-indole-2-carboxamide] has an MIC50 of 0.765 µM (≈ 0.239 µg/mL).
In the case of Cc1cc(C)c2cc(C(=O)NC3CCCCCC3)[nH]c2c1 [Example 3G, N-Cycloheptyl-4,6-dimethyl-1H-indole-2-carboxamide], the MIC50 is reported as 0.098 µM (≈ 0.0279 µg/mL).
Work on Cc1cc(C)c2cc(C(=O)NCC(C)C)[nH]c2c1 [Example 3J, N-Isobutyl-4,6-dimethyl-1H-indole-2-carboxamide] yielded an MIC50 of 11.8 µM (≈ 2.9 µg/mL).
Cc1ccc2[nH]c(C(=O)NC3CCCCC3)c(C)c2c1 [Example 4BD, N-cyclohexyl-3,5-dimethyl-1H-indole-2-carboxamide] showed an MIC50 of 3.51 µM (≈ 0.949 µg/mL).
In the case of Cc1ccc2cc(C(=O)N[C@@H]3CCCC[C@@H]3C)[nH]c2c1 [Example 4Z, 6-Methyl-N-((1R,2S)-2-methylcyclohexyl)-1H-indole-2-carboxamide], the MIC50 is reported as 0.36 µM (≈ 0.0973 µg/mL).
CCC(C)CNC(=O)c1cc2c(C)cc(C)cc2[nH]1 (stereo not drawn) [Example 3I, 4,6-Dimethyl-N-(2-methylbutyl)-1H-indole-2-carboxamide] gave an MIC50 of 2.48 µM (≈ 0.641 µg/mL).
In the case of O=C(NC1CCCCC1)c1cc2c(F)cc(F)cc2[nH]1 [Example 4BB, N-Cyclohexyl-4,6-difluoro-1H-indole-2-carboxamide], the MIC50 is reported as > 20 µM.
With COc1cccc2[nH]c(C(=O)N[C@@H]3CCCC[C@@H]3C)cc12 [Example 4AL, 4-Methoxy-N-((1R,2S)-2-methylcyclohexyl)-1H-indole-2-carboxamide] the MIC50 was 1.59 µM (≈ 0.455 µg/mL).
Compound Cc1cc(C)c2cc(C(=O)NC3CCCCC3C#N)[nH]c2c1 (stereo not drawn) [Example 4Q, N-(2-Cyanocyclohexyl)-4,6-dimethyl-1H-indole-2-carboxamide] has an MIC50 of 2.06 µM (≈ 0.608 µg/mL).
Work on C[C@H]1CCCC[C@H]1NC(=O)c1cc2ccc(Br)cc2[nH]1 [Example 4AC, 6-Bromo-N-((1R,2S)-2-methylcyclohexyl)-1H-indole-2-carboxamide] yielded an MIC50 of 0.5 µM (≈ 0.168 µg/mL).
O=C(NC1CCC(C(F)(F)F)CC1)c1cc2c(F)cc(F)cc2[nH]1 (stereo not drawn) [Example 5B, 4,6-Difluoro-N-(4-(trifluoromethyl)-cyclohexyl)-1H-indole-2-carboxamide] was tested, and the MIC50 was 1.19 µM (≈ 0.41 µg/mL).
CC1CCC(NC(=O)c2cc3c(F)cc(Cl)cc3[nH]2)CC1 (stereo not drawn) [Example 4AS, 6-Chloro-4-fluoro-N-(4-methylcyclohexyl)-1H-indole-2-carboxamide] gave an MIC50 of 0.23 µM (≈ 0.071 µg/mL).
In the case of C[C@H]1CCCC[C@H]1NC(=O)c1cc2c(F)cccc2[nH]1 [Example 4AY, 4-Fluoro-N-((1R,2S)-2-methylcyclohexyl)-1H-indole-2-carboxamide], the MIC50 is reported as 1.83 µM (≈ 0.502 µg/mL).
Cc1cc(OCCN2CCOCC2)cc2[nH]c(C(=O)NC3CCCCC3)cc12 [Example 9A, N-Cyclohexyl-4-methyl-6-(2-morpholinoethoxy)-1H-indole-2-carboxamide] was tested, and the MIC50 was 4.94 µM (≈ 1.9 µg/mL).
Work on Cc1cc(C)c2cc(C(=O)Nc3ccc(Cl)cc3)[nH]c2c1 [Example 3B, N-(4-Chlorophenyl)-4,6-dimethyl-1H-indole-2-carboxamide] yielded an MIC50 of 2.95 µM (≈ 0.881 µg/mL).
Cc1cc(N2CCOCC2)cc2[nH]c(C(=O)N[C@@H]3CCCC[C@@H]3C)cc12 [Example 6B, 4-Methyl-N-((1R,2S)-2-methylcyclohexyl)-6-morpholino-1H-indole-2-carboxamide] was tested, and the MIC50 was 14.2 µM (≈ 5.07 µg/mL).
With Cc1cc(C#N)cc2[nH]c(C(=O)N[C@@H]3CCCC[C@@H]3C)cc12 [Example 4AJ, 6-Cyano-4-methyl-N-((1R,2S)-2-methylcyclohexyl)-1H-indole-2-carboxamide] the MIC50 was 0.15 µM (≈ 0.0443 µg/mL).
Cc1cc(NC(C)C)cc2[nH]c(C(=O)N[C@@H]3CCCC[C@@H]3C)cc12 [Example 6E, 6-(Isopropylamino)-4-methyl-N-((1R,2S)-2-methylcyclohexyl)-1H-indole-2-carboxamide] gave an MIC50 of 2.92 µM (≈ 0.958 µg/mL).
In the case of CC1CCC(NC(=O)c2cc3c(F)cccc3[nH]2)CC1 (stereo not drawn) [Example 4BG, 4-Fluoro-N-(4-methylcyclohexyl)-1H-indole-2-carboxamide], the MIC50 is reported as 2.13 µM (≈ 0.584 µg/mL).
CCC(C)NC(=O)c1cc2c(C)cc(C)cc2[nH]1 (stereo not drawn) [Example 3M, N-(sec-Butyl)-4,6-dimethyl-1H-indole-2-carboxamide] showed an MIC50 of 9.33 µM (≈ 2.28 µg/mL).
Cc1cc(C)c2cc(C(=O)NCCC(C)C)[nH]c2c1 [Example 3D, N-Isopentyl-4,6-dimethyl-1H-indole-2-carboxamide] showed an MIC50 of 3.26 µM (≈ 0.842 µg/mL).
C[C@H]1CCCC[C@H]1NC(=O)c1cc2ccc(F)cc2[nH]1 [Example 4AZ, 6-Fluoro-N-((1R,2S)-2-methylcyclohexyl)-1H-indole-2-carboxamide] was tested, and the MIC50 was 1.35 µM (≈ 0.37 µg/mL).
With CCC(CC)NC(=O)c1cc2c(C)cc(C)cc2[nH]1 [Example 3F, 4,6-Dimethyl-N-(pentan-3-yl)-1H-indole-2-carboxamide] the MIC50 was 4.33 µM (≈ 1.12 µg/mL).
CCNc1cc(C)c2cc(C(=O)N[C@@H]3CCCC[C@@H]3C)[nH]c2c1 [Example 6D, 6-(Ethylamino)-4-methyl-N-((1R,2S)-2-methylcyclohexyl)-1H-indole-2-carboxamide] was tested, and the MIC50 was 4.86 µM (≈ 1.52 µg/mL).
Work on N#Cc1ccc2cc(C(=O)NC3CCCCC3)[nH]c2c1 [Example 4AF, 6-Cyano-N-cyclohexyl-1H-indole-2-carboxamide] yielded an MIC50 of 2.27 µM (≈ 0.608 µg/mL).
Work on Cc1cc(C)c2cc(C(=O)N[C@@H]3CCC[C@@H](C)[C@@H]3C)[nH]c2c1 [Example 4C, N-((1R,2S,3R)-2,3-Dimethylcyclohexyl)-4,6-dimethyl-1H-indole-2-carboxamide] yielded an MIC50 of 0.03 µM (≈ 0.00895 µg/mL).
With Cc1cc(C)c2cc(C(=O)NC3CCCCC3C(F)(F)F)[nH]c2c1 (stereo not drawn) [Example 4M, 4,6-Dimethyl-N-(2-(trifluoromethyl)cyclohexyl)-1H-indole-2-carboxamide] the MIC50 was 0.585 µM (≈ 0.198 µg/mL).
With CC1CCC(NC(=O)c2cc3c(F)cc(F)cc3[nH]2)CC1 (stereo not drawn) [Example 4F, 4,6-Difluoro-N-(4-methylcyclohexyl)-1H-indole-2-carboxamide] the MIC50 was 0.37 µM (≈ 0.108 µg/mL).
